Source: patent US20240335404A1, “SUBSTITUTED ESTERS CONTAINING POLYOLS AND SACCHARIDES FOR TREATING HEPATOTOXICITY AND FATTY LIVER DISEASES” (SINEW PHARMA INC., priority 2015, published 2024)

System: fatty liver
Experiment: High fat diet-induced fatty liver in B6 mice
Type: in vivo
Conditions: HFD mice; for ALT / AST / TC in liver / TG in liver: administration period of 4 weeks; for liver TC / liver TG: 4 or 8 weeks; for ALT and AST values: compounds administered separately; for GSH / Gpx / Grd / SOD: liver; for liver tissue sections, H&E: treated for 4 weeks, FIG. 5
Description: More than four mice were used in each group of the pre-test, while more than twelve mice were used in each group of the confirmatory test. […] The animal test was carried out according to the guideline for animal experiment of National Health Research Institutes. […] The weight of mice was recorded once a week. The tested animals were grouped randomly into Blank, High Fat Diet control (HFD), Positive Control (PS), and Test group. The animals of Blank were fed with normal feed. The animals of HFD were fed with high fat feed. […] The animals of Test group were fed with high fat feed, and additionally fed with test compounds by a tube. The animals of Blank were fed casually with normal feed for 12 weeks, while the animals of HFD, PS, and Test group were fed casually with high fat feed for 12 weeks. After 8 weeks of feeding, the animals of Blank and HFD were fed with deionized water by a tube once a day; the animals of PS were fed with silymarin by a tube once a day; and the animals of Test Group were fed with test compounds by a tube once a day for a duration of 4 or 8 weeks. Before testing and in the eighth, twelfth, and sixteenth week after testing, blood was collected from the cheek or the heart. At the end of testing, all mice were weighted and then sacrificed, and blood was collected from the cheek or the heart simultaneously. The blood specimens of mice rested at room temperature for one hour to clot, and then the serum was separated by centrifugation in a refrigeration centrifuge at 15,700×g at 4° C. for 5 minutes. Afterwards, biochemical indices of liver function, including aspartate transaminase (AST), alanine aminotransferase (ALT), triglyceride (TG), total cholesterol (TCHO/TC), low-density lipoprotein cholesterol (LDL-C), and high-density lipoprotein cholesterol (HDL-C), were detected by the automatic blood biochemistry analyzer. In addition, abdominal fat and liver specimens were taken from the abdomens of sacrificed mice and weighted to compare the weight of fat and liver and obtain the ratio of liver weight to body weight. […] The cut sections proceeded with H&E staining for histopathological observation. Moreover, the rest of the liver was frozen for preservation and detection of the contents of triglyceride and total cholesterol in the liver. Furthermore, the liver function of animals of each group were analyzed by Galactose Single Point Method, which was recognized and recommended for quantification of remaining liver function in clinical use by U.S. FDA and Ministry of Health and Welfare, Taiwan. […] One hour after the administration, about 0.5 ml of whole blood was taken by using a filter paper to evaluate liver function of mice. The higher the value of GSP was, the worse the remaining liver function would be. (FDA: “Guidance for Industry: Pharmacokinetics in Patients with Impaired. Hepatic Function-Study Design, Data Analysis and Impact on Dosing and. Labeling. 2003. At the end of the test, all mice were sacrificed. […] Afterwards, xylene was replaced with hot paraffin solution. At last, the tissue was embedded with paraffin solution. The finished paraffin specimen was cut into […] paraffin sections by the microtome. The sections were pasted on clean slides, dried at 37° C., and then stained by H&E staining. In order to observe the changes of lesion, fat accumulation, necrosis, or fibrosis in liver cells when there was an ongoing liver damage, liver tissues were H&E stained to evaluate the degree of liver fat accumulation. All the histopathological sections were cut from the same position on the largest right lobe of liver for eliminating bias in subjective observation, and then subject to pathological staining. As for the assessment of semi-quantitative analysis in pathology, it had to be confirmed by a physician or a veterinary pathologist who conducted a double-blind analysis to score (NAS score) and compare all the sections without knowing the test design. […]

[1] = 1.5 mg/kg, test period of 4 weeks
[2] = 2.5 mg/kg, test period of 4 weeks

Structure (SMILES) | Abdominal fat weight (1.5 mg/kg) [g] | Increase of body weight (1.5 mg/kg) [g] | Liver weight (1.5 mg/kg) [g] | ALT (1.5 mg/kg) [U/L] | AST (1.5 mg/kg) [U/L] | liver TC | ALT and AST values | liver TG | GSH [2] [U/L] | Gpx [2] [U/L] | Grd [2] [U/L] | SOD [2] [U/L] | Abdominal fat weight (2.5 mg/kg) [g] | Increase of body weight (2.5 mg/kg) [g] | Liver weight (2.5 mg/kg) [g] | ALT (2.5 mg/kg) [U/L] | AST (2.5 mg/kg) [U/L] | TC in liver (2.5 mg/kg) [mg/g liver] | TG in liver (2.5 mg/kg) [mg/g liver] | liver antioxidant activity (4 weeks) | other results
O=C1NS(=O)(=O)c2ccccc21 [Saccharin] | 2.3 ± 0.5 | 27.7 ± 12.7 | 1.5 ± 0.1 | 50.7 ± 29.7 | 170.4 ± 28.6 | reduce TC in liver significantly | reduce ALT and AST values significantly | – | – | – | – | – | – | – | – | – | – | – | – | – | TC in liver (1.5 mg/kg): 2.8 ± 1.5 mg/g liver; TG in liver (1.5 mg/kg): 84.0 ± 41.4 mg/g liver; reduction in liver TC content (4-week treatment, p<0.005): about 56%
CC1CCC(C(C)C)C(O)C1 (centres unmarked) [Menthol] | 2.3 ± 0.6 | 19.6 ± 5.0 | 1.6 ± 0.2 | 41.5 ± 13.7 | 129.9 ± 37.1 | reduce TC in liver significantly | reduce ALT and AST values significantly | reduce TG in liver significantly | – | – | – | – | – | – | – | – | – | – | – | – | weight of abdominal fat: reduce the weight of abdominal fat in animals significantly; GSH [1]: 1432.7 ± 104.0 U/L; Gpx [1]: 2921.7 ± 640.2 U/L; Grd [1]: 95.2 ± 16.2 U/L; SOD [1]: 427.9 ± 41.9 U/L; TC in liver (1.5 mg/kg): 4.4 ± 3.5 mg/g liver; TG in liver (1.5 mg/kg): 87.3 ± 72.3 mg/g liver; liver tissue sections, H&E: large vesicular fat droplets within liver cells in liver tissue section were significantly reduced
O=c1c(-c2ccc(O)cc2)coc2c([C@@H]3O[C@H](CO)[C@@H](O)[C@H](O)[C@H]3O)c(O)ccc12 [Puerarin] | – | – | – | – | – | – | reduce ALT and AST values significantly | reduce TG in liver significantly | 1498.1 ± 150.0 | 3581.7 ± 1056.7 | 99.0 ± 17.2 | 434.5 ± 59.8 | 2.8 ± 0.3 | 21.7 ± 3.1 | 1.4 ± 0.2 | 34.4 ± 14.7 | 66.9 ± 8.5 | 6.7 ± 2.7 | 89.4 ± 49.1 | improve antioxidant activity significantly | –
O=C(CCc1ccc(O)cc1)c1c(O)cc(O)cc1O[C@@H]1O[C@H](CO)[C@@H](O)[C@H](O)[C@H]1O [Phloridzin] | – | – | – | – | – | – | – | – | 1387.7 ± 168.2 | 3234.0 ± 505.1 | 82.2 ± 33.6 | 411.5 ± 87.5 | 2.3 ± 0.6 | 13.7 ± 10.7 | 1.3 ± 0.1 | 35.7 ± 9.1 | 161.9 ± 96.2 | 2.9 ± 0.5 | 48.9 ± 14.1 | – | –
COc1ccc([C@@H]2CC(=O)c3c(O)cc(O)cc3O2)cc1O [Hesperitin] | – | – | – | – | – | reduce TC in liver significantly | reduce ALT and AST values significantly | reduce TG in liver significantly | 1742.6 ± 241.5 | 3133.3 ± 376.9 | 102.5 ± 28.3 | 408.3 ± 66.7 | 3.0 ± 0.5 | 14.5 ± 8.3 | 1.5 ± 0.1 | 36.8 ± 22.1 | 72.4 ± 11.2 | 3.7 ± 0.7 | 67.8 ± 16.6 | improve antioxidant activity significantly | –
O=C1C[C@@H](c2ccc(O)c(O)c2)Oc2cc(O)cc(O)c21 [Eriodictyol] | – | – | – | – | – | reduce TC in liver significantly | reduce ALT and AST values significantly | reduce TG in liver significantly | 1302.0 ± 241.1 | 3083.3 ± 378.9 | 86.9 ± 15.7 | 385.9 ± 34.0 | 2.7 ± 0.6 | 8.3 ± 6.7 | 1.3 ± 0.1 | 33.7 ± 18.5 | 100.9 ± 42.0 | 3.8 ± 1.1 | 43.1 ± 13.1 | improve antioxidant activity significantly | NAS [2]: 1.5 ± 0.8 mg/g liver; ALT (5.0 mg/kg): 41.4 ± 6.3 U/L; AST (5.0 mg/kg): 161.4 ± 42.3 U/L; TC in liver (5.0 mg/kg): 3.0 ± 0.9 mg/g liver; TG in liver (5.0 mg/kg): 54.2 ± 15.0 mg/g liver; reduction in liver TG content (4-week treatment, p<0.005): about 67%; liver damage, NAS (4 weeks): reduce liver damage significantly; liver tissue sections, H&E: large vesicular fat droplets within liver cells in liver tissue section were significantly reduced
